The source of these data is patent US7294496B1, “Cloned human lysophospholipase” (The Regents of the University of California, priority 2000, dated 2007).

The target of assay [1] is T1, human recombinant LysoPLA (Homo sapiens, UniProt O75608, F152L).
T1 construct: made in house; host or cells: E. coli BL21(DE3)
In kind it is biochemical.

The target of assay [2] is mouse LysoPLA (Mus musculus, UniProt P97823). Description: Inhibition of mouse LysoPLA. In kind it is biochemical. The procedure:
Various concentrations of each inhibitor (BioMol) were prepared in DMSO. 5 μl of each inhibitor was added to 480 μl of LysoPC substrate (125 μM Ly-soPC in the assay buffer). Enzyme (either mouse or human PLA) was added to the substrate-inhibitor mixture to start the reaction, which was incubated at 40° C. for 30 min. Control experiments were performed with the same amount of enzyme with 5 μl DMSO in the incubation mixture. The reversibility of the inhibition was tested by pre-incubation of the enzyme in the presence or absence of the inhibitor, followed by overnight dialysis in the assay buffer. The recovery of the enzyme activity as a function of time was then followed. Each data point represents an average of duplicates.

The mark [3] stands for this setting: mouse enzyme, 125 μM LysoPC, similar results as human enzyme.

Like-named read-outs stand apart in the source and are kept apart here.

T1 sequence (O75608 whole entry F152L): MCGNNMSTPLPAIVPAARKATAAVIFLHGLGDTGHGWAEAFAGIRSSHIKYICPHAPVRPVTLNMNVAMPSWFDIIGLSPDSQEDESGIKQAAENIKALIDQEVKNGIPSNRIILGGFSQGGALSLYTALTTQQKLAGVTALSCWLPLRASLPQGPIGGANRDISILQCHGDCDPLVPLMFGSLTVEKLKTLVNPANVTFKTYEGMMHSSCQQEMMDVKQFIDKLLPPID
Sequence of mouse LysoPLA (P97823 whole entry): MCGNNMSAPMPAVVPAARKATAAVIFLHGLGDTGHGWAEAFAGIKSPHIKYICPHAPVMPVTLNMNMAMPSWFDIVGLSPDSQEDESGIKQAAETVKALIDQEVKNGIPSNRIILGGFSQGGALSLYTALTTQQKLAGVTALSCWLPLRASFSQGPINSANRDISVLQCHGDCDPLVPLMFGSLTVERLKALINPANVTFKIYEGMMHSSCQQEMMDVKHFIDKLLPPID

For `O=C1O/C(=C/Br)CCC1c1cccc2ccccc12` (stereo not drawn) [BEL, bromoenol lactone], the “inhibition of LysoPLA activity (in words)” value (from here on “inhibition”) is listed as “neither of them inhibited the LysoPLA activity well” in assay [1] (human enzyme, 125 μM LysoPC) and “neither of them inhibited the LysoPLA activity well” in assay [2] (setting [3]).
On to `CCCCCCCCCCCCCCCCOC[C@@H](O)COP(=O)([O-])OCC[N+](C)(C)C` [LysoPAF], for which the “inhibition” value in assay [1] and in assay [2] was “not a good inhibitor” in each case.
Turning to `CCCCCCCCCCCCCCCC(=O)C(F)(F)F` [PACOCF3, palmitoyl tri£uoromethyl ketone], the “inhibition” value in assay [1] (human enzyme, 125 μM LysoPC) is recorded as “neither of them inhibited the LysoPLA activity well”; in assay [2] (setting [3]), “neither of them inhibited the LysoPLA activity well”.
